Experimental data published in patent publication US8119681B2, “2-[1-phenyl-5-hydroxy or methoxy-4alpha-methyl-hexahydrocyclopenta [ƒ]indazole-5-YL]ethyl phenyl derivatives as glucocorticoid receptor ligands” (Merck Sharp & Dohme Corp., priority 2006, dated 2012).

What was measured:
[1] = biological target: T1, human GR (Homo sapiens, UniProt P04150); assay: Trans-Activation Modulation of Glucocorticoid Receptor (GRAMMER), MMTV-LUC reporter gene; type: cell-based; parameters: endogenous in cells; details: for Emax: A549, read-out: Transactivation A549 Cells GRAMMER Emax (%); for EC50: Table 1, A549 cells, IP = inflection point, read-out: Transactivation A549 Cells GRAMMER IP
T1 sequence (P04150 1-777): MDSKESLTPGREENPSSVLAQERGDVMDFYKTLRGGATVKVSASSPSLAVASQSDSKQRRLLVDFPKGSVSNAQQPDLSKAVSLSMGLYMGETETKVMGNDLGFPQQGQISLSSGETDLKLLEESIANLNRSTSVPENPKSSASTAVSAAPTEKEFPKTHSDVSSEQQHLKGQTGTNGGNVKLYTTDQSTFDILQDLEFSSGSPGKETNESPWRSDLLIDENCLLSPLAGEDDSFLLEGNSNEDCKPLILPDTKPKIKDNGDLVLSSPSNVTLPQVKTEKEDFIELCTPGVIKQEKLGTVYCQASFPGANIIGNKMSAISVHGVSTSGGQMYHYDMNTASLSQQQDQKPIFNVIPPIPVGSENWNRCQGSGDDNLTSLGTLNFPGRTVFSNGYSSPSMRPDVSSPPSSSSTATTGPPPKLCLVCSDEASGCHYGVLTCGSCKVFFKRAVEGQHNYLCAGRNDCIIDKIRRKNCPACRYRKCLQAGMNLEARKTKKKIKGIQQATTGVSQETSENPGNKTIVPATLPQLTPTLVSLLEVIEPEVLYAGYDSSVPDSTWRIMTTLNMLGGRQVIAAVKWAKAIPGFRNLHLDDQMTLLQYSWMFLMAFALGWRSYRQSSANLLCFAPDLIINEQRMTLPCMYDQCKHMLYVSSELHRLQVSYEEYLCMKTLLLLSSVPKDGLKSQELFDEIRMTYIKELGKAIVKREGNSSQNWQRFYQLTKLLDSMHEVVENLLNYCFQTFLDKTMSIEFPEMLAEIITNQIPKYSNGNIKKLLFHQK

[2] = biological target: T1, human GR; assay: Transrepression Assay (GITAR), TNFα-β-lactamase reporter gene in U937 cells; type: cell-based; parameters: U937 cells contain an endogenous glucocorticoid receptor (GR); endogenous in cells; host or cells: U937 cells stably transfected with the TNF-α promoter/β-lactamase reporter only; details: for EC50: IP = inflection point, read-out: Transrepression U937 Cells GITAR IP; for GITAR > GRAMM % SEP: separation of GITAR Emax over GRAMMER Emax; for Emax: U-937
Outline: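 Reporter readout used CCF2-AM loading for 70–90 min at room temperature after overnight (~18 h, 37 °C) PMA (5 ng/ml final) and LPS (100 ng/ml final) stimulation of compound-treated (30–45 min) TNFα-β-lactamase U937 cells expressing native GR. Activity was normalised to 100 nM dexamethasone repression.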

[3] = 100 nM dexamethasone = 100% activity, read-out: maximal activity in the transrepression assay
[4] = Table 1, U937 cells, activity repressed by 100 nM dexamethasone = 100%, read-out: Transrepression U937 Cells GITAR Emax (%)

| SMILES | Emax [1] [%] | EC50 [1] [µM] | EC50 ([2]; Table 1, U937 cells) [µM] | GITAR > GRAMM % SEP ([2]; Table 1) [%] | Emax [2, 3] [%] | Emax [2, 4] [%] | Transrepression U937 Cells GITAR Emax (%) ([2]; Table 1, U937 cells, activity repressed by 100 nM dexamethasone = 100%) |
| --- | --- | --- | --- | --- | --- | --- | --- |
| CCS(=O)(=O)c1ccccc1CC[C@]1(O)CCC2=Cc3c(cnn3-c3ccc(F)cc3)C[C@@]21C [Example 143, (4αS,5R)-5-{2-[2-(ethylsulfonyl)phenyl]ethyl}-1-(4-fluorophenyl)-4α-methyl-1,4,4α,5,6,7-hexahydrocyclopenta[f]indazol-5-ol] | 41 | 0.118 | 0.194 | 29 | 5 to 100 | 70 | – |
| C[C@]12Cc3cnn(-c4ccc(F)cc4)c3C=C1CC[C@@]2(O)CCc1ccccc1S(=O)(=O)C1CC1 [Example 144, (4αS,5R)-5-{2-[2-(cyclopropylsulfonyl)phenyl]ethyl}-1-(4-fluorophenyl)-4α-methyl-1,4,4α,5,6,7-hexahydrocyclopenta[f]indazol-5-ol] | 40 | 0.268 | 0.212 | – | 5 to 100 | 70 | – |
| C[C@]12Cc3cnn(-c4ccc(F)cc4)c3C=C1CC[C@@]2(O)CCc1cccc(F)c1CO [Example 148, (4αS,5R)-5-{2-[3-fluoro-2-(hydroxymethyl)phenyl]ethyl}-1-(4-fluorophenyl)-4α-methyl-1,4,4α,5,6,7-hexahydrocyclopenta[f]indazol-5-ol] | 57 | 0.043 | 0.046 | 18 | 5 to 100 | 75 | – |
| C[C@]12Cc3cnn(-c4ccc(F)cc4)c3C=C1CC[C@@]2(O)CCc1cccc(F)c1[C@H](N)C(F)(F)F [Example 151, (4αS,5R)-5-(2-{2-[(1S)-1-amino-2,2,2-trifluoroethyl]-3-fluorophenyl}ethyl)-1-(4-fluorophenyl)-4α-methyl-1,4,4α,5,6,7-hexahydrocyclopenta[f]indazol-5-ol] | 43 | 0.17 | 0.207 | 33 | 5 to 100 | 76 | – |
| C[C@]12Cc3cnn(-c4ccc(F)cc4)c3C=C1CC[C@@]2(O)CCc1cccc(F)c1[C@@H](N)C(F)(F)F [Example 152, (4αS,5R)-5-(2-{2-[(1R)-1-amino-2,2,2-trifluoroethyl]-3-fluorophenyl}ethyl)-1-(4-fluorophenyl)-4α-methyl-1,4,4α,5,6,7-hexahydrocyclopenta[f]indazol-5-ol] | 44 | 0.223 | 0.247 | 34 | 5 to 100 | 77 | – |
| C[C@]12Cc3cnn(-c4ccc(F)cc4)c3C=C1CC[C@@]2(O)CCc1ccccc1C(=O)N1CC(=O)C1 [Example 156, 1-(2-{2-[(4αS,5R)-1-(4-fluorophenyl)-5-hydroxy-4α-methyl-1,4,4α,5,6,7-hexahydrocyclopenta[f]indazol-5-yl]ethyl}benzoyl)azetidin-3-one] | 47 | 0.278 | 0.189 | 22 | 5 to 100 | 69 | – |
| CC(=O)Cc1ccccc1CC[C@]1(O)CCC2=Cc3c(cnn3-c3ccc(F)cc3)C[C@@]21C [Example 157, 1-(2-{2-[(4αS,5R)-1-(4-fluorophenyl)-5-hydroxy-4α-methyl-1,4,4α,5,6,7-hexahydrocyclopenta[f]indazol-5-yl]ethyl}phenyl)acetone] | 45 | 0.24 | 0.194 | 18 | 5 to 100 | 63 | – |
| C[C@]12Cc3cnn(-c4ccc(F)cc4)c3C=C1CC[C@@]2(O)CCc1ccc(F)cc1C(N)=O [Example 159, 5-fluoro-2-{2-[(4αS,5R)-1-(4-fluorophenyl)-5-hydroxy-4α-methyl-1,4,4α,5,6,7-hexahydrocyclopenta[f]indazol-5-yl]ethyl}benzamide] | 37 | 0.197 | 0.125 | 36 | 5 to 100 | 73 | – |
| C[C@]12Cc3cnn(-c4ccc(F)cc4)c3C=C1CC[C@@]2(O)/C=C/c1ccccc1S(N)(=O)=O [Example 160, 2-{(E)-2-[(4αS,5R)-1-(4-fluorophenyl)-5-hydroxy-4α-methyl-1,4,4α,5,6,7-hexahydrocyclopenta[f]indazol-5-yl]vinyl}benzenesulfonamide] | – | 0.118 | 0.274 | 42 | – | – | 72 |
| C[C@]12Cc3cnn(-c4ccc(F)cc4)c3C=C1CC[C@@]2(O)CCc1ccc(F)cc1C#N [Example 163, 5-fluoro-2-{2-[(4αS,5R)-1-(4-fluorophenyl)-5-hydroxy-4α-methyl-1,4,4α,5,6,7-hexahydrocyclopenta[f]indazol-5-yl]ethyl}benzonitrile] | 48 | 0.103 | 0.299 | 23 | 5 to 100 | 70 | – |
| C[C@]12Cc3cnn(-c4ccc(F)c(F)c4)c3C=C1CC[C@@]2(O)CCc1cccc(F)c1C(N)=O [Example 168, 2-{2-[(4α,5R)-1-(3,4-difluorophenyl)-5-hydroxy-4α-methyl-1,4,4α,5,6,7-hexahydrocyclopenta[f]indazol-5-yl]ethyl}-6-fluorobenzamide] | 58 | 0.053 | 0.052 | 19 | 5 to 100 | 77 | – |
| C[C@]12Cc3cnn(-c4ccc(F)cc4)c3C=C1CC[C@@]2(O)CCc1ccc(Cl)cc1C(N)=O [Example 170, 5-chloro-2-{2-[(4αS,5R)-1-(4-fluorophenyl)-5-hydroxy-4α-methyl-1,4,4α,5,6,7-hexahydrocyclopenta[f]indazol-5-yl]ethyl}benzamide] | 24 | 0.234 | 0.223 | 42 | 5 to 100 | 66 | – |
| C[C@]12Cc3cnn(-c4ccc(F)c(F)c4)c3C=C1CC[C@@]2(O)CCc1ccccc1C(N)=O [Example 172, 2-{2-[(4αS,5R)-1-(3,4-difluorophenyl)-5-hydroxy-4α-methyl-1,4,4α,5,6,7-hexahydrocyclopenta[f]indazol-5-yl]ethyl}benzamide] | 41 | 0.162 | 0.139 | 36 | 5 to 100 | 78 | – |
| Cc1ccc(C(N)=O)c(CC[C@]2(O)CCC3=Cc4c(cnn4-c4ccc(F)cc4)C[C@@]32C)c1 [Example 174, 2-{2-[(4αS,5R)-1-(4-fluorophenyl)-5-hydroxy-4α-methyl-1,4,4α,5,6,7-hexahydrocyclopenta[f]indazol-5-yl]ethyl}-4-methylbenzamide] | 36 | 0.147 | 0.183 | 41 | 5 to 100 | 77 | – |
| C[C@]12Cc3cnn(-c4ccc(Cl)cc4)c3C=C1CC[C@@]2(O)CCc1cccc(F)c1C(N)=O [Example 185, 2-{2-[(4αS,5R)-1-(4-chlorophenyl)-5-hydroxy-4α-methyl-1,4,4α,5,6,7-hexahydrocyclopenta[f]indazol-5-yl]ethyl}-6-fluorobenzamide] | 39 | 0.144 | 0.059 | 41 | 5 to 100 | 80 | – |
| COc1cccc(CC[C@]2(O)CCC3=Cc4c(cnn4-c4ccc(F)cc4)C[C@@]32C)c1C(N)=O [Example 189, 2-{2-[(4αS,5R)-1-(4-fluorophenyl)-5-hydroxy-4α-methyl-1,4,4α,5,6,7-hexahydrocyclopenta[f]indazol-5-yl]ethyl}-6-methoxybenzamide] | 49 | 0.028 | 0.023 | 31 | 5 to 100 | 80 | – |
| Cc1cccc(CC[C@]2(O)CCC3=Cc4c(cnn4-c4cccc(F)c4)C[C@@]32C)c1C(N)=O [Example 191, 2-{2-[(4αS,5R)-1-(3-fluorophenyl)-5-hydroxy-4α-methyl-1,4,4α,5,6,7-hexahydrocyclopenta[f]indazol-5-yl]ethyl}-6-methylbenzamide] | 49 | 0.055 | 0.033 | 29 | 5 to 100 | 78 | – |
